According to patent US20220133701A1, “METHODS OF TREATING PAIN” (Yeda Research and Development Co. Ltd., priority 2019, published 2022):

Assays:
Type in all cases: in vivo, mouse
importin α3 = assay: Importin α3 immunostaining intensity in DRG sections and cultured DRG neurons (line scan / nuclear intensity)
Protocol: Histology—Lumbar sections of the spinal cord including Dorsal root ganglia (DRGs) were pre-fixed for 6 minutes before dissection of spinal cord and associated DRGs. Lumbar DRG (L4, unless otherwise indicated) and/or spinal cord were then fixed for six hours in 4% PFA in PBS, washed in PBS and equilibrated in 20% w/v sucrose in PBS prior to serial cryo-sectioning at a thickness of 10-20 μm. Following, one set for each DRG was processed for immunostaining. […]
Fluorescence Intensity Analysis: Line scan analysis of fluorescence intensity was carried out on high-resolution confocal z-stack from DRG sections to determine fluorescence intensity of c-FOS and importin α3 over cell regions of interest in-vivo. […] The integrated density was calculated as the sum of the values of the pixels in both cytoplasmic and nuclear regions of interest determined on the basis of TuJ-1, CGRP, TRPV1 or DAPI staining, respectively.

SNI mice = assay: Spared nerve injury (SNI) model of neuropathic pain, paw withdrawal threshold (PWT) by Von Frey test; conditions: SNI mice, viral (AAV9) knockdown followed by SNI, from day 60 onward, vs shCtrl (FIG. 4E)
Protocol: Chronic neuropathic pain was assessed using the spared nerve injury (SNI) model^13. Mice were anaesthetized with Ketamine/Xylazine (10 mg/kg body weight, intraperitoneal). The skin on the lateral surface of the thigh was incised and a section was made directly through the biceps femoris muscle in order to expose the sciatic nerve and its three terminal branches: the sural, common peroneal and tibial nerves. The SNI procedure comprised an axotomy and ligation of the tibial and common peroneal nerves leaving the sural nerve intact. The peroneal and the tibial nerves were tight-ligated and sectioned distal to the ligation. […] Following, mice were evaluated over a period of three months.
Von Frey tests of sensitivity to mechanical stimuli were conducted as previously described [Marvaldi et al. Dev Neurobiol 75, 217 (2015)]. Briefly, mice were placed in acrylic chambers suspended above a wire mesh grid and allowed to habituate to the testing apparatus for one hour prior to experiments. When the mouse was calm, the von Frey filaments were pressed against the plantar surface of the paw until the filament buckled and held for a maximum of 3 seconds. A positive response was noted if the paw was sharply withdrawn on application of the filament. Testing began with filament target force 13.7 milliNewtons and progressed according to an up-down method. 2 gram Von Frey filaments were used to assess sensitivity to noxious mechanical stimulation, scoring mice responses as follows: 0, no response; 1, visible signs of discomfort without leg withdrawal; 2, withdrawal of the leg.

Kpna4/importin α3 mRNA = assay: RT-qPCR of importin α3 (Kpna4) mRNA in DRG cultures after intrathecal AAV; conditions: DRG cultures from mice one month following intrathecal injection; vs shCtrl (FIG. 3F)
Protocol: Gene expression analysis by RT-qPCR: Total RNA from DRG neuronal cultures and DRG tissue from SNI mice were extracted using the Ambion RNAqueous-Micro total RNA isolation kit (Life Technologies Corp.). RNA purity, integrity (RIN>8) and concentration was determined, and 100-200 ng of total RNA was then used to synthesize cDNA using SuperScript III (Invitrogen). RT-qPCR was performed on a ViiA7 System (Applied Biosystems) using PerfeCTa SYBR Green (Quanta Biosciences, Gaithersburg, USA). Forward/Reverse primers were designed for different exons and the RNA was treated with […] to avoid false-positives. Amplicon specificity was verified by melting curve analysis. All RT-qPCR reactions were conducted in technical triplicates and the results were averaged for each sample, normalized to Actb levels and the relevant reporter genes such as GFP and for the viruses; and analyzed using the comparative ΔΔCt method [Livak & Schmittgen. Methods 25, 402 (2001)]. The following primers (Mus musculus) were used: […]

mice = assay: Open field; conditions: wild-type mice three weeks after intrathecal AAV9 shRNA (FIG. 5A)
Protocol: Motility and anxiety-like behaviors were assayed in the open field (OF) as previously described^8. Mouse activity was tracked and recorded using VideoMot2 (TSE System, Germany). OF was performed under 120 1× for the assessment of anxiety-related behaviors. The OF raw data were further analyzed with COLORcation [Dagan et al. J Neurosci Methods 270, 9 (2016)].

shα3: AAV9 expressing an importin α3 targeting shRNA (SEQ ID NO: 8), intrathecal injection (DNA GATCCGGCTTTGACAAACATTGCATGAAGCTTGATGCAATGTTTGTCAAAGCCTTTTTT)
impα3 nuclear intensity in cultured DRG neurons (importin α3; cultures of treated animals vs shCtrl (FIGS. 3G-H)): significant reduction in nuclear levels
impα3 signal, line scan intensity in DRG sections (importin α3; wild type mice one month following intrathecal injection, vs shCtrl (FIG. 3E)): reduction of impα3 signal
paw withdrawal threshold (PWT), Von Frey test (SNI mice): recovery
paw withdrawal threshold (PWT), Von Frey test (SNI mice; listed as anti-importin α3 shRNA): significant recovery of the paw withdrawal reflex
impα3 mRNA (RT-qPCR, log 2 fold-change normalized to GFP) (Kpna4/importin α3 mRNA): significant downregulation of impα3 mRNA
open field (exploratory behaviour) (mice): No deficits were observed in either test
open field (exploratory behaviour) (mice; listed as anti-importin α3 shRNAs): no effect
